Assay results from patent publication US8486974B2 (priority 2007, dated 2013).

Assays:
[1] = Hydrolysis and aspirin release in buffered human plasma solution (HPLC); conditions: for aspirin production / aspirin produced: 50% human plasma
GPIIb/IIIa = assay: Flow cytometry of activated GPIIb/IIIa (PAC-1) on platelets; format: cell-based, human
Experimental: In order to analyze receptor expression on the surface of individual platelets and to minimize platelet activation caused by sample preparation procedures, no stirring or vortexing steps were used. The abundance of activated GPIIb/IIIa and P-selectin on the surface of platelets in the presence and absence of inhibitors was measured by flow cytometry. Platelet samples were first activated with agonists either collagen or ADP. When platelet aggregation reached 50% maximal light transmission the reaction was terminated by 10-fold dilution with physiologic saline. Resting platelets were used as control. In most of the experiments, platelets were preincubated with inhibitors for 10 min prior to the addition of agonists. Platelet samples were then incubated in the dark without stirring for 5 min at room temperature in the presence of saturating concentrations (10 μg/ml) of P-selectin (CD62P-APC). The activated GPIIb/IIIa platelet receptors were measured using PAC-1 monoclonal antibody at the same concentration as above. PAC-1 specifically recognizes an epitope on the high-affinity GPIIb/IIIa complex of activated platelets at or near the […]. Following incubation, samples were diluted in FACS Flow fluid and analyzed within 5 min using a BD FACSArray (BD Biosciences, Oxford, UK). Flow cytometry was performed on single stained platelet samples as described before^3. The instrument was set up to measure the size (forward scatter), granularity (side scatter) and cell fluorescence. A two-dimensional analysis gate of forward and side scatter was drawn in order to include single platelets and exclude platelet aggregates and microparticles. Antibody binding was measured by analyzing individual platelets for fluorescence. The mean fluorescence intensity was determined after correction for cell autofluorescence. For each sample, the fluorescence was analyzed using a logarithmic scale. Fluorescence histograms were obtained for 10,000 individual events. Data were analyzed using Cytometer RXP software and expressed as a percentage of control fluorescence in arbitrary units.

[2] = cited from earlier work
[3] = tested on: human platelet aggregation to arachidonic acid; assay: Human platelet aggregation to arachidonic acid in platelet rich plasma; format: cell-based; conditions: Homo sapiens, platelet rich plasma
Experimental: (§1) Blood was collected from healthy volunteers who had not taken any drugs known to affect platelet function for at least 14 days prior to the study. Platelet rich plasma (PRP) and washed platelet suspensions (2.5×10^8 platelets/ml) were prepared from blood as previously described.
(§2) Platelet aggregation was measured by light aggregometry as previously described. Briefly, PRP and washed platelet samples (2.5×10^8/ml) were placed in a whole blood ionized calcium lumi-aggregometer (Chronolog Corp., Havertown, Pa., U.S.A), and (BIO/DATA CORPORATION) and incubated for 10 min at 37° C., with stirring at 900 r.p.m., prior to the addition of aggregating agents. Aggregation was initiated by the addition of agonists, and monitored by Aggro-Link software for at least 6 min. For experiments using inhibitors, aggregation was initiated after 10 min preincubation with these compounds

[4] = tested on: platelet aggregation in human whole blood; assay: Whole blood aggregation studies (impedance method); format: cell-based; conditions: Homo sapiens, Platelet; arachidonic acid; impedance method; read-out: IC50, platelet aggregation towards arachidonic acid in human whole blood
Experimental: A 500 μl aliquot of blood was mixed with 500 μl of physiological saline and allowed to incubate at 37° C. for 10 mins in the incubation well of a Chrono-Log Whole Blood Aggregometer model 591/592. The sample was then transferred to the assay well, baseline was established and appropriate volume of reagent as above was added. Aggregation was monitored over 6 mins with impedance output recorded on a chart recorder. When testing inhibitors whole blood was pre-incubated with appropriate concentrations of inhibitor in DMSO at 37° C. for a specified length of time before adding the stimulant (10 mins with stirring). Three different aggregating agents, AA (0.5 mM), ADP (10 μM) and Collagen (5 μg/ml) were used. […] DMSO in high concentrations (above 0.25%) can induce a concentration dependent change in platelet cytoplasmic ionised calcium. Before each experiment a control was run using PRP to obtain normal aggregating responses. A sample was also incubated for 10 min at 37° C. with 10 μl DMSO to ensure it was having no inhibitory effect on the aggregation response.

[5] = in vivo; cited from earlier work
[6] = biological target: T1, purified human serum BuChE (Homo sapiens, UniProt P06276); assay: Hydrolysis by purified human serum butyrylcholinesterase; format: in vitro ADME; conditions: Purified human serum (0.15 mg/ml); conc drug 0.12 mM
T1 construct: Purified human serum butyrylcholinesterase (EC 3.1.1.8); purchased Sigma-Aldrich; host or cells: human serum
Experimental: Pooled plasma/serum solutions (4 ml) were prepared to the correct strength by dilution of plasma with phosphate buffer pH 7.4 (e.g. for a 10% solution 0.4 ml of plasma/serum was added to 3.6 ml of phosphate buffer pH 7.4). Following equilibration of the plasma/serum sample at 37±0.5° C. 100 μl of a stock solution of test compound in acetonitrile (1×10^−4 M) was added and 250 μl aliquots were removed at specified time intervals. Samples were transferred to 1.5 ml Eppendorf tubes containing 500 μl of a 2% w/v solution of nSO4.7H2O (water:acetonitrile, 1:1). Tubes were vortexed for 2 minutes, then centrifuged at 10,000 rpm for 3 minutes at room temperature. Supernatant was aspirated off and analysed by HPLC. The concentration of test compound and metabolites were determined with reference to calibration curves run on that day in the same concentration range and under the same experimental conditions. In order to mimic conditions during the first passage of the drugs after intestinal absorption selected compounds were incubated in phosphate buffer at 37° C. in the presence of microsomes from human liver (HLM) and intestinal epithelium (HIM). The metabolic fate of the esters under these conditions was also determined by RPHPLC by measuring the concentration of drug and metabolites in the medium as a function of time. The identity of participating enzymes was confirmed by using purified enzyme in the case of plasma (BuChE) and by repeating the hydrolysis experiments in the presence of esterase specific inhibitors—isoOMPA for BuChE and BNPP for carboxylesterase. The BuChE activity of plasma and microsomal samples was determined using the Ellman assay (Ellman et al., 1964).

[7] = biological target: horse plasma butyrylcholinesterase (Equus caballus, UniProt P81908); conditions: cited from earlier work
[8] = human, 2.4 µM, pH 7.4
[9] = tested on: collagen-induced human platelet aggregation; assay: Collagen-induced human platelet aggregation in vitro; format: cell-based
Experimental: as §1, §2
(§3) Collagen at different concentrations (3-5 ug/ml) was also used to induce platelet aggregation. The submaximal concentrations of agonists, i.e. the concentrations that gave approximately 95% of the maximal aggregation were used to study the effects of inhibitors of aggregation. Results were expressed in percent changes in maximal light transmission, with 100% representing light transmission of platelet medium alone.

[10] = tested on: ADP-induced platelet aggregation; assay: ADP-induced platelet aggregation in PRP; format: cell-based, human
Experimental: as §1, §2, §3

[11] = phosphate buffered human plasma solutions (Gilmer et al., 2002)

T1 sequence (P06276 29-602): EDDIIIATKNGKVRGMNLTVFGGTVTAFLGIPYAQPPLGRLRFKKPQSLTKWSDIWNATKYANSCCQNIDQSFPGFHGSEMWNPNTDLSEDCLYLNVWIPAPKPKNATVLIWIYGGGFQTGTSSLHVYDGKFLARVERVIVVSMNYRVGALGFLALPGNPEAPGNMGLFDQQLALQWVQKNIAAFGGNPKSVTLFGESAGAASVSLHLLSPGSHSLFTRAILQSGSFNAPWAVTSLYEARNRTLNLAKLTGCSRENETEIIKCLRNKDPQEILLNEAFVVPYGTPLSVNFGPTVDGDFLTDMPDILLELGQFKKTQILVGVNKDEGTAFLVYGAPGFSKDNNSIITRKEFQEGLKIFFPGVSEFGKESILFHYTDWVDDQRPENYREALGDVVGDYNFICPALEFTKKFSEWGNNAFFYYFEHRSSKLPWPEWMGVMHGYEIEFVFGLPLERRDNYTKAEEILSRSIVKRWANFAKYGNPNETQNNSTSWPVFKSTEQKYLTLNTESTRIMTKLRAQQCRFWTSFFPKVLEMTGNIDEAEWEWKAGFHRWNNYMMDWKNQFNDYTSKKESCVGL
Chain of horse plasma butyrylcholinesterase (P81908 whole entry): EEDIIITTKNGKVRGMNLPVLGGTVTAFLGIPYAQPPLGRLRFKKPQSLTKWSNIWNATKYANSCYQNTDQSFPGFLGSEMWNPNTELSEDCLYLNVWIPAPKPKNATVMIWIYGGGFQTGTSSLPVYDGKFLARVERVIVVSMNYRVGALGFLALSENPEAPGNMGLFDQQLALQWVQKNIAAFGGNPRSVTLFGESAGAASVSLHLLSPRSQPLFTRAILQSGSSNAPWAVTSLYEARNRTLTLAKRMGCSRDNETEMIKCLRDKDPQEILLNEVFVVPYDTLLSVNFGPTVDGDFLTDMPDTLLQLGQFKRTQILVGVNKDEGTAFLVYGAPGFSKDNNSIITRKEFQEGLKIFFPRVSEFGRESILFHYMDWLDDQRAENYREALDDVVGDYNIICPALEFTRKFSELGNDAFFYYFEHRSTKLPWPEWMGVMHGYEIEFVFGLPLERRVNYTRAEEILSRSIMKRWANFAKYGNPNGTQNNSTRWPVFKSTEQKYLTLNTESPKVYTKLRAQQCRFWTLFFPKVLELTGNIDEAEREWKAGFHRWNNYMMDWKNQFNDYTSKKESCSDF

“Isosorbide-2-aspirinate-5-(4-nitrooxy-methyl) benzoate [Compound 33]” showed an aspirin production [1] of 2 µM and an aspirin produced ([1]; drug 1×10^−4 M) of 2 µM.

With `CC(=O)Oc1ccccc1C(=O)O[C@H]1CO[C@H]2[C@@H]1OC[C@H]2O` [Compound 17, Isosorbide-2-aspirinate-5-OH, reference compound] the “molar % aspirin released in 10% human plasma” value ([1]; 10% human plasma, pH 7.4, 37° C., peak aspirin as percentage of initial ester concentration in moles) was 2.95%, the “Half-life in 10% human plasma” value ([1]; 10% human plasma, phosphate buffer pH 7.4, 37° C.) was 4.08 min and the “acts as aspirin prodrug in human plasma” value ([1]; human plasma) was “is not an aspirin prodrug”. The “acts as aspirin prodrug in human plasma” value ([1]; human plasma, listed as 2-aspirinate) was “None of these acted as aspirin prodrugs”.

For `CC(=O)Oc1ccccc1C(=O)O` [aspirin], the “constitutive platelet glyco-protein expression” value (GPIIb/IIIa; concentrations at which aspirin has no effect) is given as “has no effect”, the “inhibition of platelets activation” value (GPIIb/IIIa; same concentration like ISAS (2) or nitrate compounds 31-32) is given as “failed to inhibit platelets activation” and the “half-life in dilute plasma” value ([2]; dilute plasma) is given as “around one”. The IC50 [3] was 5 µM, the IC50 [4] was 25 µM and the “half-life in the body” value [5] was 20 min.

For “Isosorbide-2-aspirinate-5-(3-nitrooxy-methyl)benzoate [Compound 32]”, the “Aspirin” value ([1]; 50% HP, conc drug 0.25 mM) was 26 µM, the “Salicylic acid” value ([1]; 50% HP, conc drug 0.25 mM) was 18 µM and the aspirin production [1] was 26 µM. The aspirin produced ([1]; drug 2.5×10^−4 M) was 26 µM, the “Salicylic acid” value ([1]; 80% HP, conc drug 0.1 mM) was 9 µM and the “Aspirin” value [6] was 15 µM. For the same compound, the “Drug disappearace” value [6] was 10 min and the “Salicylic acid” value [6] was 6 µM.

In the case of `CC(=O)Oc1ccccc1C(=O)O[C@H]1CO[C@H]2[C@@H]1OC[C@H]2OC(=O)c1ccccc1OC(C)=O` [Compound 16, Isosorbide-di-aspirinate], the aspirin generated [7] is listed as 11%, the “hydrolysis along unproductive salicylate pathway” value [8] is listed as 40% and the “aspirin produced in phosphate buffered human plasma solutions” value [2, 11] is listed as “approximately 60%”. The “hydrolysed along the unproductive salicylate pathway” value [2, 11] was 40%.

In the case of `CC(=O)Oc1ccccc1C(=O)O[C@@H]1CO[C@H]2[C@@H]1OC[C@@H]2O` [Compound 5-aspirinate, isosorbide-5-aspirinate, reference compound], the “acts as aspirin prodrug in human plasma” value ([1]; human plasma) is reported as “None of these acted as aspirin prodrugs”.

For “Isosorbide-2-aspirinate-5-(p-cyanobenzoate) [Compound 20]”, the “potency relative to aspirin, inhibition of collagen-induced human platelet aggregation” value [9] was “more potent than aspirin” and the “potency relative to aspirin, inhibition of ADP-induced platelet aggregation” value [10] was “more potent inhibitor”.

With “Isosorbide-2-aspirinate-5-(2-nitrooxy-methyl)benzoate [Compound 31]” the aspirin production [1] was 10.3 µM and the aspirin produced ([1]; drug 1×10^−4 M) was 10.3 µM.

With “Isosorbide-2-aspirinate-5-[2-methylbenzoate] [Compound 1]” the “aspirin release (hydrolysis along the aspirin pathway) in human plasma” value ([1]; human plasma) was “around 60%”.
